In brackets after ≈: the same amount, converted by molar mass.
What was measured:
[1] = system: human monocytic THP-1 cells; assay: Assessment of inflammatory potential, marker expression via ELISA; type: cell-based; conditions: THP-1 cell suspension exposed to material films, LPS positive control
Description: For assessment of inflammatory potential, a suspension of human monocytic THP-1 cells was exposed to POC, TCP, PLGA, and ePTFE films. Afterwards, the expression of tissue factor, IL-6, and TNF-α was measured via ELISA. Addition of lipopolysaccharide (LPS) to the cells was used as a positive control.

[2] = cited from earlier work

Compound | TNF-α expression [1] | Tissue factor expression [1] | solubility in dimethylsulfoxide (DMSO) ([2]; DMSO) | solubility in chloroform ([2]; chloroform) | solubility in dichloromethane ([2]; dichloromethane) | solubility in ethanol ([2]; ethanol) [µg/mL] | solubility in water ([2]; water)
lipopolysaccharide [LPS] | 874 ± 531 | 536 ± 81 | – | – | – | – | –
CC1=C(/C=C/C(C)=C/C=C/C(C)=C/C(=O)O)C(C)(C)CCC1 [ATRA, All-trans retinoic acid] | – | – | soluble | soluble | soluble | 3000 (≈ 9.99 mM) | not readily soluble

Source: patent publication US20160199535A1, “Controlled and Localized Release of Retinoids to Improve Neointimal Hyperplasia” (VesselTek BioMedical LLC, priority 2008, published 2016)
